We go through 20 compounds from ChEMBL document CHEMBL4732194, “Indolyl-α-keto-1,3,4-oxadiazoles: Synthesis, anti-cell proliferation activity, and inhibition of tubulin polymerization” (Bioorg Med Chem Lett, 2021).

SMILES strings stand for the structures. Activity calls are given as the source filed them. The calls are words filed in the database; no cut-off is given here.

The subject of experiment [1] is Jurkat. Nature of the experiment: Antiproliferative activity against human Jurkat cells assessed as cell survival at 10 uM (reference value: 104.3 +/ 10.2 %). Type of experiment: functional. Conditions: read-out: Activity.
The subject of experiment [2] is U-937. Put plainly: Antiproliferative activity against human U-937 cells assessed as cell survival at 10 uM (reference value: 100 +/ 8.7 %). The note with it: read-out: Activity. Type of experiment: functional.
Experiment [3] can be described thus: Antiproliferative activity against human SMS-SB cells assessed as cell survival at 10 uM (reference value: 100 +/ 6 %). Type of experiment: functional. The note with it: read-out: Activity.
Experiment [4] concerns BT-474. Put plainly: Antiproliferative activity against human BT-474 cells assessed as cell survival at 10 uM (reference value: 100 +/ 6.3 %). Type of experiment: functional. The note with it: read-out: Activity.
In experiment [5] the test system is MCF7. Put plainly: Antiproliferative activity against estrogen-sensitive human MCF7 cells assessed as cell growth inhibition measured after 4 days by crystal violet staining based assay. Conditions: MCF7, 96 h. Type of experiment: functional.
A short description of experiment [6]: Inhibition of calf brain tubulin polymerization assessed as disruption of microtubule assembly measured after 20 mins in presence of GTP by turbidometric analysis. Type of experiment: tissue-based, Bos taurus.
Experiment [7] deals with Jurkat. Nature of the experiment: Induction of apoptotic cell death in human Jurkat cells assessed as activation of caspase 3/7 at 3 uM by fluorescence assay relative to control. Type of experiment: functional.
Experiment [8] addresses Tubulin (Homo sapiens) (UniProt P68371+Q9H4B7+P0DPH7+P68366+Q13509+Q71U36+P04350+Q3ZCM7+P07437+P68363+Q9BQE3+Q6PEY2+Q13885+Q9BVA1+Q9BUF5). Put plainly: (§1) Inhibition of tubulin polymerization (unknown origin) assessed as inhibition of microtubule formation. Type of experiment: protein-complex assay.
The target of experiment [9] is Tubulin. The experiment is described as §1. Type of experiment: protein-complex assay, Homo sapiens.
Experiment [10] relates to BT-474. Nature of the experiment: Antiproliferative activity against human BT-474 cells assessed as inhibition of cell proliferation. Type of experiment: functional, cell-based.
Experiment [11] is described as follows: Antiproliferative activity against human SMS-SB cells assessed as inhibition of cell proliferation. Type of experiment: functional, cell-based.
In experiment [12] the test system is U-937. Nature of the experiment: Antiproliferative activity against human U-937 cells assessed as inhibition of cell proliferation. Type of experiment: functional, cell-based.
In experiment [13] the test system is Jurkat. Nature of the experiment: Cytotoxicity against human Jurkat cells assessed as cell membrane damage by LDH assay. Type of experiment: functional, cell-based.
In experiment [14] the test system is Jurkat. Put plainly: Antiproliferative activity against human Jurkat cells assessed as inhibition of cell proliferation. Type of experiment: functional, cell-based.
Experiment [15] deals with Jurkat. Nature of the experiment: Induction of apoptotic cell death in human Jurkat cells assessed as activation of caspase 3/7 by fluorescence assay relative to control. Type of experiment: functional.
A short description of experiment [16]: Inhibition of porcine brain tubulin polymerization assessed as disruption of microtubule assembly measured after 1.5 hrs in presence of GTP by fluorescence based analysis. Type of experiment: tissue-based, Sus scrofa.

Take `COc1ccc(C(=O)c2nnc(-c3c[nH]c4ccccc34)o2)cc1`: the viability at 10 µM is 99.6% in experiment [1], 108% in experiment [2], 96.2% in experiment [3] and 88.4% in experiment [4].

`COc1ccc(C(=O)c2nnc(-c3c[nH]c4ccc(Br)cc34)o2)cc1`: the viability at 10 µM in experiment [1] came to 88.8%; in experiment [2] it was 105%; in [3], 94.8%; in [4] it was 65.8%.

For `COc1ccc(C(=O)c2nnc(-c3c[nH]c4ccc(OC)cc34)o2)cc1`, the viability at 10 µM is 99.9% in [1], 98.7% in experiment [2], 70.7% in experiment [3] and 70.3% in experiment [4].

As to `COc1ccc(-c2[nH]c3cc(OC)ccc3c2C=O)cc1`, the IC50 (commonly the concentration that inhibits the measured activity by half) in experiment [5] was determined as 35 nM; in [6] it was 1500 nM.

`COc1cc(C(=O)c2nnc(-c3c[nH]c4ccc(Br)cc34)o2)cc(OC)c1OC`: the viability at 10 µM in experiment [1] was determined as 77.4%; in experiment [2], 92.1%; in [3], 70.9%; in experiment [4] it was 56.8%.

On to `Cc1ccc(C(=O)c2nnc(-c3c[nH]c4ccccc34)o2)cc1`, for which the viability at 10 µM in experiment [1] was 78.9%; in experiment [2], 102%; in experiment [3], 66.8%; in [4], 67.9%.

Consider `COc1ccc(C(=O)c2nnc(-c3cc4ccccc4[nH]3)o2)cc1OC`, for which the viability at 10 µM in experiment [1] worked out at 67.4%; in experiment [2] it was 75.2%; in [3], 76.1%; in experiment [4] it was 67.4%.

Regarding `COc1cc(C(=O)c2nnc(-c3cn(Cc4ccc(Cl)cc4)c4ccccc34)o2)cc(OC)c1OC`, the viability at 10 µM worked out at 80.6% in experiment [1], 86% in [2], 96.2% in experiment [3] and 68.5% in experiment [4].

In the case of `O=C(Nc1ccncc1)C(=O)c1cn(Cc2ccc(Cl)cc2)c2ccccc12` [INDIBULIN], the viability at 10 µM stood at 31.6% in experiment [1], 27.1% in [2], 32.9% in experiment [3] and 40.9% in experiment [4].

Regarding `COc1cc(C(=O)c2nnc(-c3c[nH]c4ccccc34)o2)cc(OC)c1OC`, in experiment [7], the “fold change (FC)” value worked out at 9. For the same compound, the inhibition entry in experiment [8] is “Dose-dependent effect”. Also, the IC50 in experiment [9] worked out at 10700 nM; in [10] it was 4100 nM; in experiment [11], 800 nM; in experiment [12], 7100 nM; in experiment [14], 3100 nM. In addition, the viability at 10 µM in experiment [1] is 35.2%; in experiment [2], 27.5%; in [3] it was 11.6%; in experiment [4], 41.1%. In [13], the result was inactive.

Consider `O=C(c1ccc(F)cc1)c1nnc(-c2c[nH]c3ccccc23)o1`, for which the viability at 10 µM turned out to be 90.9% in experiment [1], 95.3% in experiment [2], 76.8% in [3] and 62.3% in [4].

As to `COc1ccc2[nH]cc(-c3nnc(C(=O)c4cc(OC)c(OC)c(OC)c4)o3)c2c1`, the viability at 10 µM in experiment [1] is 88.9%; in experiment [2] it was 85.5%; in experiment [3], 74.3%; in [4], 54%.

For the compound `O=C(c1ccccc1)c1nnc(-c2cn(Cc3ccc(Cl)cc3)c3ccccc23)o1`, the viability at 10 µM came to 82% in experiment [1], 85% in [2], 87.9% in [3] and 68.9% in [4].

As for `O=C(c1ccccc1)c1nnc(-c2c[nH]c3ccccc23)o1`, the viability at 10 µM in experiment [1] is 82.1%; in [2], 98.7%; in experiment [3] it was 87.6%; in experiment [4], 59.3%.

In the case of `COc1ccc(C(=O)c2nnc(-c3c[nH]c4cc(F)ccc34)o2)cc1`, the viability at 10 µM stood at 86.4% in [1], 108% in experiment [2], 101% in experiment [3] and 72.6% in experiment [4].

In the case of `COc1cc(C(=O)c2nnc(-c3cc4ccccc4[nH]3)o2)cc(OC)c1OC`, the viability at 10 µM was 44.9% in experiment [1], 91.2% in experiment [2], 35.7% in experiment [3] and 111% in experiment [4].

Consider `COc1ccc(C(=O)c2nnc(-c3cc4ccccc4[nH]3)o2)cc1`, for which the viability at 10 µM turned out to be 75.1% in experiment [1], 84.1% in experiment [2], 79.9% in [3] and 56.1% in [4].

Regarding `COc1cccc2c1C(=O)c1c(O)c3c(c(O)c1C2=O)C[C@@](O)(C(=O)CO)C[C@@H]3O[C@H]1C[C@H](N)[C@H](O)[C@H](C)O1` [DOXORUBICIN], the “fold change (FC)” value in experiment [15] came out at 8. In addition, the viability at 10 µM turned out to be 30.1% in [1], 22.9% in experiment [2], 15.1% in experiment [3] and 31.8% in [4].

On to `COc1cc(/C=C/c2nnc(-c3cc(-c4ccc(Cl)cc4)n[nH]3)o2)cc(OC)c1OC`, for which the IC50 in experiment [16] amounted to 1300 nM.

Turning to `COc1ccc(C(=O)c2nnc(-c3c[nH]c4ccccc34)o2)cc1OC`, the viability at 10 µM was determined as 92.5% in [1], 90.3% in experiment [2], 93.5% in [3] and 70.2% in [4].
